In patent US8129417B2, “Substituted octahydrocyclopenta[C]pyrrol-4-amines as calcium channel blockers” (Abbott Laboratories, priority 2008, dated 2012):

Each compound was assayed against human Cav2.2 (Homo sapiens, UniProt Q00975) (assay: Assessment of calcium channel activity using FLIPR (Ca2+ influx in IMR32 cells)). Details: 60 minute pre-incubation with compound, 2 μM nifedipine, depolarized with 80 mM KCl.
Format: cell-based
Summary of the method: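 IMR32 neuroblastoma cells seeded at 1-1.2×10^5 cells/well and grown 48 h at 37 °C before FLIPR Ca2+ influx read. Percent inhibition at each concentration vs no-inhibitor activity; IC50 by non-linear sigmoidal dose-response fit.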

Sequence of human Cav2.2 (Q00975 whole entry): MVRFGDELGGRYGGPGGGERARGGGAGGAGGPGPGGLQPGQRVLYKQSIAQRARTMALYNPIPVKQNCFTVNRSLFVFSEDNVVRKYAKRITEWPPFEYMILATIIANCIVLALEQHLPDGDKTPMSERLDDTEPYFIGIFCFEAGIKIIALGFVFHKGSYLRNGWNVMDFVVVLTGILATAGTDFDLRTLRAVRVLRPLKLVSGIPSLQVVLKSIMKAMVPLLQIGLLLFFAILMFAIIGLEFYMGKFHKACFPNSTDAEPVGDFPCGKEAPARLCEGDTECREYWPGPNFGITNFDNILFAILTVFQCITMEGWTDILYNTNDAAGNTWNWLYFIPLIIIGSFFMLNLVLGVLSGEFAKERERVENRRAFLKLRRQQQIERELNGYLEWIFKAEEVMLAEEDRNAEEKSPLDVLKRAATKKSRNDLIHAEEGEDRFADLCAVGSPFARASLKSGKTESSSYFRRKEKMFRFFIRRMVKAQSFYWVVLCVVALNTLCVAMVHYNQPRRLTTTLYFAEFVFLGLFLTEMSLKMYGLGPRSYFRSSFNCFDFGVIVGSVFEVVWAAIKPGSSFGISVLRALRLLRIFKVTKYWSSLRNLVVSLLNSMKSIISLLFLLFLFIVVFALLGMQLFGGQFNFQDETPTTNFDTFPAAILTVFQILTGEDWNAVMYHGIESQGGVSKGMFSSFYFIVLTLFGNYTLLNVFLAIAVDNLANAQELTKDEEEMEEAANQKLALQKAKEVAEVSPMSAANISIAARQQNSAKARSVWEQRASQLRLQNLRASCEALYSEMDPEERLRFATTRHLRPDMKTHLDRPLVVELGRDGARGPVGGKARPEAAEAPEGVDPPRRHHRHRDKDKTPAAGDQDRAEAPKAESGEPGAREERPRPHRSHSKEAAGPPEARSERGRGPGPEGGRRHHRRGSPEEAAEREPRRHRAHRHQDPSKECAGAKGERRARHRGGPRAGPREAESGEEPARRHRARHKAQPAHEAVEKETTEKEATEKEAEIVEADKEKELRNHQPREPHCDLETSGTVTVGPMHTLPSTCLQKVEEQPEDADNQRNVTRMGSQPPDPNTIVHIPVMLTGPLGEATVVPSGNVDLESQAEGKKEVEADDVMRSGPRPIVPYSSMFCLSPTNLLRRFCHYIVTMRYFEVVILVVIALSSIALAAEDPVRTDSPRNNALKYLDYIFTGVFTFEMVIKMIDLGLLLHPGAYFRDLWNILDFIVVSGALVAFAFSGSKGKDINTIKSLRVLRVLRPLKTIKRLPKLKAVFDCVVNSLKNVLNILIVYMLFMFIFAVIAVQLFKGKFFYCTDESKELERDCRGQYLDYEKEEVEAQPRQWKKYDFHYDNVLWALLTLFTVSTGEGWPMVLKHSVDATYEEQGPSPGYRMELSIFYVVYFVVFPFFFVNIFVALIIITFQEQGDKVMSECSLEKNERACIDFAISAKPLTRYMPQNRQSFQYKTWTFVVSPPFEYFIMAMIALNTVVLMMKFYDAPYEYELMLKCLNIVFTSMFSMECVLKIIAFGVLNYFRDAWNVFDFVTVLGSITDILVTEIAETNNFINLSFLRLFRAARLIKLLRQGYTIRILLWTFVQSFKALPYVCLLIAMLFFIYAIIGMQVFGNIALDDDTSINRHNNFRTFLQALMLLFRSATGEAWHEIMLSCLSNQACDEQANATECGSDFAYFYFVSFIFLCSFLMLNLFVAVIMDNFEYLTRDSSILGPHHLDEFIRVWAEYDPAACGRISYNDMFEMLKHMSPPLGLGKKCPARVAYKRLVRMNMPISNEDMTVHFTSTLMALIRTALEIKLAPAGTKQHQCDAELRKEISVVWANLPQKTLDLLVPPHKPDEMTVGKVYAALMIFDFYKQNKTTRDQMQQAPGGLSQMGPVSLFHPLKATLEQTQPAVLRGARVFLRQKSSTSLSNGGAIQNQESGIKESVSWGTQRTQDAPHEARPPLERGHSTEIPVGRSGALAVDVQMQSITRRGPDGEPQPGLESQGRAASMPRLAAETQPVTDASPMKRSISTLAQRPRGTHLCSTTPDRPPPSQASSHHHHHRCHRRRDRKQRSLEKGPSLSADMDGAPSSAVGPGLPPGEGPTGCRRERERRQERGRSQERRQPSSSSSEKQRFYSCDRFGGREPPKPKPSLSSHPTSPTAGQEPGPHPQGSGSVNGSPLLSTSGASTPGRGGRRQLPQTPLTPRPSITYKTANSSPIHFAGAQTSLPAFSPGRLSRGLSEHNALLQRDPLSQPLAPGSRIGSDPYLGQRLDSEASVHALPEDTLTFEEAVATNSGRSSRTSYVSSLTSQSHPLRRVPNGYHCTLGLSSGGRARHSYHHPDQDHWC
Sequence of human Cav2.2 (P54289 25-946 partner limits assumed): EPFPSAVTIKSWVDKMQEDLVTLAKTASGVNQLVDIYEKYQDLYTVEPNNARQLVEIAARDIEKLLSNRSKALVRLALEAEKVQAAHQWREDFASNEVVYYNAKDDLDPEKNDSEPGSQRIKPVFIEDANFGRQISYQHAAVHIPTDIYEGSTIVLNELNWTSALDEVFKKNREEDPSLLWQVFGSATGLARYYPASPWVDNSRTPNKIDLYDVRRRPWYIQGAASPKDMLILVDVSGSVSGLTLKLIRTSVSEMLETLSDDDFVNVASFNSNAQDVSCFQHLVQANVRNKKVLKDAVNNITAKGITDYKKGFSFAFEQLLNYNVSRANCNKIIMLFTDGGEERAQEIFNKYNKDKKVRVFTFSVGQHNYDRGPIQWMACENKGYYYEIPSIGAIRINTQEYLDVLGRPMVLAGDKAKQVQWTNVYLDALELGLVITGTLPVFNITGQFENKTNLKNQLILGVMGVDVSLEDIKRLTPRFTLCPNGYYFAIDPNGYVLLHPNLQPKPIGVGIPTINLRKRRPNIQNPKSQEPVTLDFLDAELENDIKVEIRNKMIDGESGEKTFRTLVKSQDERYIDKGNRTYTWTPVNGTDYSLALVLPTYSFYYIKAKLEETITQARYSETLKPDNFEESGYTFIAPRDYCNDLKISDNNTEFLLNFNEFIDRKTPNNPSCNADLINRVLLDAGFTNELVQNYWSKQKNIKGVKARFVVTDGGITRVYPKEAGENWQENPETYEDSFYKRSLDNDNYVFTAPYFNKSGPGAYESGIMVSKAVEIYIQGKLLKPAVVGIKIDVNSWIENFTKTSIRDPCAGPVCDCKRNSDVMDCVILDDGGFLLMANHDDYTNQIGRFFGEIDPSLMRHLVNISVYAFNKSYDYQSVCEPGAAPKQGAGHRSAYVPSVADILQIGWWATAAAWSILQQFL
Sequence of human Cav2.2 (P54289 947-1103 partner limits assumed): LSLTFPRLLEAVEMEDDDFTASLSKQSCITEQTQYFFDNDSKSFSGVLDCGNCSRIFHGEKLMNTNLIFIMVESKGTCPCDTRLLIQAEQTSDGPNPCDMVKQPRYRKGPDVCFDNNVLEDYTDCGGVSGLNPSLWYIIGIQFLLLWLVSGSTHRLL
Sequence of human Cav2.2 (P54284 whole entry partner): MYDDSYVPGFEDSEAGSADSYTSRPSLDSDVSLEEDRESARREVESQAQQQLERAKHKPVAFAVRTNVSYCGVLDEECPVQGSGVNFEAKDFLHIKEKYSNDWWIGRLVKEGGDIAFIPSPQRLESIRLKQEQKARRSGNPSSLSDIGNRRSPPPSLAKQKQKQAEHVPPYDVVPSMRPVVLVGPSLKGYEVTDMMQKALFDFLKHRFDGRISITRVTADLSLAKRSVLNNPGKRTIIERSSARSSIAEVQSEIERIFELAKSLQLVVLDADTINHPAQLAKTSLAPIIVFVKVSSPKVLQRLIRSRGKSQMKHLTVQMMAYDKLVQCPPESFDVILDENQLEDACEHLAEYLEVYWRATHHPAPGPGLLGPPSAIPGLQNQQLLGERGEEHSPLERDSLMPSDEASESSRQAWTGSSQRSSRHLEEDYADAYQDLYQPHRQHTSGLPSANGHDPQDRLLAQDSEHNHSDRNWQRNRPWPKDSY

| SMILES | IC50 [nM] |
| --- | --- |
| CC(C)[C@@H](C(=O)N[C@H]1CC[C@@H]2CN(S(=O)(=O)c3cccc(C(F)(F)F)c3)C[C@@H]21)N(C)C(=O)OC(C)(C)C [Example 273, tert-butyl methyl((S)-3-methyl-1-oxo-1-((3aR,4S,6aS)-2-(3-(trifluoromethyl)phenylsulfonyl)octahydrocyclopenta[c]pyrrol-4-ylamino)butan-2-yl)carbamate] | 180 |
| CC(C)(C)OC(=O)N1CCCC[C@H]1C(=O)N[C@H]1CC[C@@H]2CN(S(=O)(=O)c3cccc(C(F)(F)F)c3)C[C@@H]21 [Example 274, tert-butyl(2S)-2-{[((3aR,4S,6aS)-2-{[3-(trifluoromethyl)phenyl]sulfonyl}octahydrocyclopenta[c]pyrrol-4-yl)amino]carbonyl}piperidine-1-carboxylate] | 1380 |
| CC(C)(C)OC(=O)N1Cc2ccccc2C[C@H]1C(=O)N[C@H]1CC[C@@H]2CN(S(=O)(=O)c3cccc(C(F)(F)F)c3)C[C@@H]21 [Example 275, tert-butyl(3S)-3-{[((3aR,4S,6aS)-2-{[3-(trifluoromethyl)phenyl]sulfonyl}octahydrocyclopenta[c]pyrrol-4-yl)amino]carbonyl}-3,4-dihydroisoquinoline-2(1H)-carboxylate] | 920 |
| CC(C)(C)C[C@H](NC(=O)OC(C)(C)C)C(=O)N[C@H]1CC[C@@H]2CN(S(=O)(=O)c3cccc(C(F)(F)F)c3)C[C@@H]21 [Example 276, tert-butyl(S)-4,4-dimethyl-1-oxo-1-((3aR,4S,6aS)-2-(3-(trifluoromethyl)phenylsulfonyl)octahydrocyclopenta[c]pyrrol-4-ylamino)pentan-2-ylcarbamate] | 380 |
| CCCC[C@@H](C(=O)N[C@H]1CC[C@@H]2CN(S(=O)(=O)c3cccc(C(F)(F)F)c3)C[C@@H]21)N(C)C(=O)OC(C)(C)C [Example 277, tert-butyl methyl((S)-1-oxo-1-((3aR,4S,6aS)-2-(3-(trifluoromethyl)phenylsulfonyl)octahydrocyclopenta[c]pyrrol-4-ylamino)hexan-2-yl)carbamate] | 720 |
| CCC[C@@H](C(=O)N[C@H]1CC[C@@H]2CN(S(=O)(=O)c3cccc(C(F)(F)F)c3)C[C@@H]21)N(C)C(=O)OC(C)(C)C [Example 278, tert-butyl methyl((S)-1-oxo-1-((3aR,4S,6aS)-2-(3-(trifluoromethyl)phenylsulfonyl)octahydrocyclopenta[c]pyrrol-4-ylamino)pentan-2-yl)carbamate] | 340 |
| CC(C)(C)CN[C@@H]1CC[C@H]2CN(S(=O)(=O)c3cccc(C(F)(F)F)c3)C[C@H]21 [Example 281, (3aS,4R,6aR)—N-neopentyl-2-{[3-(trifluoromethyl)phenyl]sulfonyl}octahydrocyclopenta[c]pyrrol-4-amine] | 4180 |
| CC(C)(C)CN[C@H]1CC[C@@H]2CN(S(=O)(=O)c3cccc(C(F)(F)F)c3)C[C@@H]21 [Example 282, (3aR,4S,6aS)—N-neopentyl-2-{[3-(trifluoromethyl)phenyl]sulfonyl}octahydrocyclopenta[c]pyrrol-4-amine] | 5240 |
| CC(C)N[C@H]1CC[C@@H]2CN(S(=O)(=O)c3ccc(C(F)(F)F)cc3)C[C@@H]21 [Example 283, (3aR,4S,6aS)—N-isopropyl-2-{[4-(trifluoromethyl)phenyl]sulfonyl}octahydrocyclopenta[c]pyrrol-4-amine] | 8690 |
| O=S(=O)(c1cccc(C(F)(F)F)c1)N1C[C@@H]2CC[C@@H](NCc3ccc(F)cc3)[C@@H]2C1 [Example 285, (3aS,4R,6aR)—N-(4-fluorobenzyl)-2-{[3-(trifluoromethyl)phenyl]sulfonyl}octahydrocyclopenta[c]pyrrol-4-amine] | 480 |
| O=S(=O)(c1cccc(C(F)(F)F)c1)N1C[C@H]2CC[C@H](NCc3ccc(F)cc3)[C@H]2C1 [Example 286, (3aR,4S,6aS)—N-(4-fluorobenzyl)-2-{[3-(trifluoromethyl)phenyl]sulfonyl}octahydrocyclopenta[c]pyrrol-4-amine] | 380 |
| Fc1ccc(CN[C@H]2CC[C@@H]3CN(Cc4cccc(C(F)(F)F)c4)C[C@@H]32)cc1 [Example 287, (3aR,4S,6aS)—N-(4-fluorobenzyl)-2-[3-(trifluoromethyl)benzyl]octahydrocyclopenta[c]pyrrol-4-amine] | 3090 |
| CCN[C@H]1CC[C@@H]2CN(S(=O)(=O)c3ccc(C(F)(F)F)cc3)C[C@@H]21 [Example 288, (3aR,4S,6aS)—N-ethyl-2-{[4-(trifluoromethyl)phenyl]sulfonyl}octahydrocyclopenta[c]pyrrol-4-amine] | 10400 |
| CCCN[C@H]1CC[C@@H]2CN(S(=O)(=O)c3ccc(C(F)(F)F)cc3)C[C@@H]21 [Example 290, (3aR,4S,6aS)—N-propyl-2-{[4-(trifluoromethyl)phenyl]sulfonyl}octahydrocyclopenta[c]pyrrol-4-amine] | 7800 |
| CCCN(CCC)[C@H]1CC[C@@H]2CN(S(=O)(=O)c3ccc(C(F)(F)F)cc3)C[C@@H]21 [Example 291, (3aR,4S,6aS)—N,N-dipropyl-2-{[4-(trifluoromethyl)phenyl]sulfonyl}octahydrocyclopenta[c]pyrrol-4-amine] | 4400 |
| O=S(=O)(c1ccc(C(F)(F)F)cc1)N1C[C@H]2CC[C@H](NCC3CC3)[C@H]2C1 [Example 292, (3aR,4S,6aS)—N-(cyclopropylmethyl)-2-{[4-(trifluoromethyl)phenyl]sulfonyl}octahydrocyclopenta[c]pyrrol-4-amine] | 3910 |
| CCN[C@H]1CC[C@@H]2CN(S(=O)(=O)c3ccc(C(F)(F)F)cc3Cl)C[C@@H]21 [Example 293, (3aR,4S,6aS)-2-{[2-chloro-4-(trifluoromethyl)phenyl]sulfonyl}-N-ethyloctahydrocyclopenta[c]pyrrol-4-amine] | 4820 |
| CCN(C(=O)[C@H](CC(C)(C)C)N(C)C(=O)OC(C)(C)C)[C@H]1CC[C@@H]2CN(S(=O)(=O)c3ccc(C(F)(F)F)cc3)C[C@@H]21 [Example 296, tert-butyl(S)-1-(ethyl((3aR,4S,6aS)-2-(4-(trifluoromethyl)phenylsulfonyl)octahydrocyclopenta[c]pyrrol-4-yl)amino)-4,4-dimethyl-1-oxopentan-2-yl(methyl)carbamate] | 2140 |
| CCCN(C(=O)[C@H](CC(C)(C)C)N(C)C(=O)OC(C)(C)C)[C@H]1CC[C@@H]2CN(S(=O)(=O)c3ccc(C(F)(F)F)cc3)C[C@@H]21 [Example 297, tert-butyl(S)-4,4-dimethyl-1-oxo-1-(propyl((3aR,4S,6aS)-2-(4-(trifluoromethyl)phenylsulfonyl)octahydrocyclopenta[c]pyrrol-4-yl)amino)pentan-2-yl(methyl)carbamate] | 7880 |
| O=[N+]([O-])c1ccccc1S(=O)(=O)N[C@H]1CC[C@@H]2CN(S(=O)(=O)c3ccc(C(F)(F)F)cc3)C[C@@H]21 [Example 299, 2-nitro-N-((3aR,4S,6aS)-2-{[4-(trifluoromethyl)phenyl]sulfonyl}octahydrocyclopenta[c]pyrrol-4-yl)benzenesulfonamide] | 3680 |
| CN([C@H]1CC[C@@H]2CN(S(=O)(=O)c3ccc(C(F)(F)F)cc3)C[C@@H]21)S(=O)(=O)c1ccccc1[N+](=O)[O-] [Example 300, N-methyl-2-nitro-N-((3aR,4S,6aS)-2-{[4-(trifluoromethyl)phenyl]sulfonyl}octahydrocyclopenta[c]pyrrol-4-yl)benzenesulfonamide] | 1540 |
| CN(C(=O)OC(C)(C)C)[C@@H](CC(C)(C)C)C(=O)N(C)[C@H]1CC[C@@H]2CN(S(=O)(=O)c3ccc(C(F)(F)F)cc3)C[C@@H]21 [Example 302, tert-butyl(S)-4,4-dimethyl-1-(methyl((3aR,4S,6aS)-2-(4-(trifluoromethyl)phenylsulfonyl)octahydrocyclopenta[c]pyrrol-4-yl)amino)-1-oxopentan-2-yl(methyl)carbamate] | 1140 |
| CC(C)C[C@@H](C(=O)N[C@@H]1CC[C@H]2CN(Cc3cccc(C(F)(F)F)c3)C[C@H]21)N1CCCS1(=O)=O [Example 303, (2S)-2-(1,1-dioxidoisothiazolidin-2-yl)-4-methyl-N-{(3aS,4R,6aR)-2-[3-(trifluoromethyl)benzyl]octahydrocyclopenta[c]pyrrol-4-yl}pentanamide] | 3110 |
| CC(C)C(C(=O)N[C@@H]1CC[C@H]2CN(Cc3cccc(C(F)(F)F)c3)C[C@H]21)C(C)C [Example 304, 2-isopropyl-3-methyl-N-{(3aS,4R,6aR)-2-[3-(trifluoromethyl)benzyl]octahydrocyclopenta[c]pyrrol-4-yl}butanamide] | 3780 |
| CC(C)C(C(=O)N[C@H]1CC[C@@H]2CN(Cc3cccc(C(F)(F)F)c3)C[C@@H]21)C(C)C [Example 305, 2-isopropyl-3-methyl-N-{(3aR,4S,6aS)-2-[3-(trifluoromethyl)benzyl]octahydrocyclopenta[c]pyrrol-4-yl}butanamide] | 3510 |
| CC(C)C[C@H](NC(=O)OC(C)(C)C)C(=O)N[C@H]1CC[C@@H]2CN(Cc3cccc(C(F)(F)F)c3)C[C@@H]21 [Example 306, tert-butyl(S)-4-methyl-1-oxo-1-((3aR,4S,6aS)-2-(3-(trifluoromethyl)benzyl)octahydrocyclopenta[c]pyrrol-4-ylamino)pentan-2-ylcarbamate] | 500 |
| CC(C)C[C@@H](C(=O)N[C@H]1CC[C@@H]2CN(Cc3cccc(C(F)(F)F)c3)C[C@@H]21)N(C)C(=O)OC(C)(C)C [Example 307, tert-butyl methyl((S)-4-methyl-1-oxo-1-((3aR,4S,6aS)-2-(3-(trifluoromethyl)benzyl)octahydrocyclopenta[c]pyrrol-4-ylamino)pentan-2-yl)carbamate] | 1540 |
| CC(C)C[C@@H](C(=O)N[C@H]1CC[C@@H]2CN(Cc3ccc(F)cc3)C[C@@H]21)N(C)C(=O)OC(C)(C)C [Example 309, tert-butyl(S)-1-((3aR,4S,6aS)-2-(4-fluorobenzyl)octahydrocyclopenta[c]pyrrol-4-ylamino)-4-methyl-1-oxopentan-2-yl(methyl)carbamate] | 1740 |
